Reference: PMC11923837, “Proline-Modified (RW)n Peptides: Enhancing the Antimicrobial Efficacy and Selectivity against Multidrug-Resistant Pathogens” (ACS Omega, 2025)
Read-outs that look alike come from different tables or passages of the source. No end group written: not given here.

Key:
human cells = assay type: cell-based
[1] = tested on: human red blood cells (RBCs); assay: Hemolysis assay; assay type: cell-based
Protocol: (§1) Cytotoxicity was evaluated using human embryonic kidney (HEK293) and human red blood cells (RBCs). HEK293 cells were cultured in DMEM supplemented with 10% FBS. Cells were seeded in 384-well plates and incubated with peptides for 24 h. Cell viability was assessed using the resazurin reduction assay. Hemolysis assays were performed using fresh human RBCs incubated with peptides for 1 h at 37 °C.

[2] = tested on: Escherichia coli (E. coli) ATCC 25922; assay: microbe, parasite or virus in culture; conditions: for MIC, Ec (Table 1S): supplement Table 1S, unit not given (main-text tables: μg/mL), capital letter component 95 mg; for MIC: Escherichia coli, ATCC25922, 18 h, read-out: MIC against E. coli
Protocol: (§2) Antimicrobial activity was evaluated using the Community for Open Antimicrobial Drug Discovery (CO-ADD) screening platform. Minimum inhibitory concentrations (MICs) were determined against the following five bacterial strains: Escherichia coli (E. coli) ATCC 25922, Klebsiella pneumoniae ATCC 700603, Acinetobacter baumannii ATCC 19606, Pseudomonas aeruginosa ATCC 27853, and Staphylococcus aureus ATCC 43300.
(§3) Bacteria were cultured in cation-adjusted Mueller–Hinton broth (CAMHB) at 37 °C overnight. Cultures were diluted 40-fold in fresh broth and incubated at 37 °C for 1.5–3 h. Mid-log phase cultures were then diluted and added to the compound-containing plates, giving a final cell density of 5 × 10^5 CFU/mL in a total volume of 50 μL. Plates were incubated at 37 °C for 18 h without shaking.
(§4) Bacterial growth inhibition was determined by measuring the absorbance at 600 nm (OD600) using a Tecan M1000 Pro monochromator plate reader. The percentage of growth inhibition was calculated using negative (media only) and positive (bacteria without inhibitors) controls. Significance was determined by modified Z scores calculated using the median and MAD of the samples on the same plate. Samples with inhibition values above 80% and Z scores above 2.5 for either replicate were classified as active.
(§5) The fractional inhibitory concentration (FIC) index was calculated to determine synergy, additivity, or antagonism.
(§6) Colistin and VAN were used as positive bacterial inhibitor standards for Gram-negative and Gram-positive bacteria, respectively. The quality control (QC) of the assays was determined by the antimicrobial controls and the Z’ factor (using positive and negative controls).
(§7) Percentage growth inhibition was calculated using negative (media only) and positive (bacteria without inhibitors) controls. Modified Z scores were used to determine the significance of the inhibition values. Samples with inhibition values of above 80% and Z scores of above 2.5 for either replicate were classified as active. Data are presented as the mean ± standard deviation from at least three independent experiments.

[3] = tested on: Staphylococcus aureus ATCC 43300 (MRSA); assay: microbe, parasite or virus in culture; conditions: for MIC, Sa (Table 1S): supplement Table 1S, unit not given (main-text tables: μg/mL), capital letter component 95 mg; for MIC: Staphylococcus aureus, read-out: MIC against MRSA
Protocol: as §2, §3, §4, §5, §6, §7

[4] = tested on: Acinetobacter baumannii ATCC 19606; assay: microbe, parasite or virus in culture; conditions: for MIC, Ab (Table 1S): supplement Table 1S, unit not given (main-text tables: μg/mL), capital letter component 95 mg; for MIC: Acinetobacter baumannii, ATCC19606, 18 h, read-out: MIC against Ab
Protocol: as §2, §3, §4, §5, §6, §7

[5] = tested on: Klebsiella pneumoniae ATCC 700603; assay: microbe, parasite or virus in culture; conditions: for MIC against Kp: ATCC 700603, 18 h; for MIC, Kp (Table 1S): supplement Table 1S, unit not given (main-text tables: μg/mL), capital letter component 95 mg, minor letter component 5 mg
Protocol: as §2, §3, §4, §5, §6, §7

[6] = tested on: Pseudomonas aeruginosa ATCC 27853; assay: microbe, parasite or virus in culture; conditions: for MIC, Pa (Table 1S): supplement Table 1S, unit not given (main-text tables: μg/mL), capital letter component 95 mg; for MIC: Pseudomonas aeruginosa, ATCC27853, 18 h, read-out: MIC against Pa
Protocol: as §2, §3, §4, §5, §6, §7

[7] = tested on: human embryonic kidney (HEK293) cells; assay: Cytotoxicity, resazurin reduction assay; assay type: cell-based
Protocol: as §1

[8] = summary in words, Table 5; earlier biophysical studies ref 20; cited from earlier work
From the text: Table 5 Structure–Activity Relationships of (RW)n Peptides ^a | column: Thermal stability

[9] = tested on: Gram-positive and Gram-negative bacteria; assay: Structure-activity summary: antimicrobial activity (Table 5); assay type: cell-based; conditions: summary in words
[10] = S. aureus ATCC 43300, CAMHB, 5 × 10^5 CFU/mL, 37 °C, 18 h, OD600, mixtures: capital letter component 95 mg, minor letter component 5 mg

| Compound | Toxicity (human cells) | MIC, Hm (Table 1S) [1] | RBC hemolysis MIC [1] [µg/mL] | MIC against E. coli ([2]; ATCC 25922, 18 h) [µg/mL] | MIC, Ec (Table 1S) ([2]; minor letter component 5 mg) | MIC against MRSA ([3]; ATCC 43300, 18 h) [µg/mL] | MIC, Sa (Table 1S) ([3]; minor letter component 5 mg) | MIC against Ab ([4]; ATCC 19606, 18 h) [µg/mL] | MIC, Ab (Table 1S) ([4]; minor letter component 5 mg) | MIC against Kp [5] [µg/mL] | MIC, Kp (Table 1S) [5] | MIC against Pa ([6]; ATCC 27853, 18 h) [µg/mL] | MIC, Pa (Table 1S) ([6]; minor letter component 5 mg) | MIC, Hk (Table 1S) [7] [µg/mL] | HEK293 cells MIC ([7]; 24 h) [µg/mL] | Thermal stability [8] | Antimicrobial activity [9] | also measured |
| --- | --- | --- | --- | --- | --- | --- | --- | --- | --- | --- | --- | --- | --- | --- | --- | --- | --- | --- |
| N=C(N)NCCC[C@H](NC(=O)[C@H](Cc1c[nH]c2ccccc12)NC(=O)[C@H](CCCNC(=N)N)NC(=O)[C@H](Cc1c[nH]c2ccccc12)NC(=O)[C@H](CCCNC(=N)N)NC(=O)[C@H](Cc1c[nH]c2ccccc12)NC(=O)[C@H](CCCNC(=N)N)NC(=O)[C@H](Cc1c[nH]c2ccccc12)NC(=O)[C@H](CCCNC(=N)N)NC(=O)[C@H](Cc1c[nH]c2ccccc12)NC(=O)[C@@H](N)CCCNC(=N)N)C(=O)N[C@@H](Cc1c[nH]c2ccccc12)C(N)=O [RW6] | Moderate | <= 0.25 | ≤0.25 | ≤0.25 | <= 0.25 | ≤0.25 | <= 0.25 | >32 | > 32 | >32 | > 32 | >32 | > 32 | > 32 | >32 | High | High |  |
| RWRWRWRW-NH2 [RW4] | Low | > 32 | >32 |  | > 32 | 8 | 8 | >32 | > 32 | >32 | > 32 | >32 | > 32 | > 32 | >32 | Low | Moderate |  |
| CC[C@H](C)[C@H](N)C(=O)N[C@@H](CC(C)C)C(=O)N1CCC[C@H]1C(=O)N[C@@H](Cc1c[nH]c2ccccc12)C(=O)N[C@@H](CCCCN)C(=O)N[C@@H](Cc1c[nH]c2ccccc12)C(=O)N1CCC[C@H]1C(=O)N[C@@H](Cc1c[nH]c2ccccc12)C(=O)N[C@@H](Cc1c[nH]c2ccccc12)C(=O)N1CCC[C@H]1C(=O)N[C@@H](Cc1c[nH]c2ccccc12)C(=O)N[C@@H](CCCN=C(N)N)C(=O)N[C@@H](CCCN=C(N)N)C(N)=O [Indolicidin, reference compound] |  |  |  |  |  |  |  |  |  |  |  |  |  |  |  |  |  | RBC hemolysis MIC ([1]; fresh human RBCs, 1 h, 37 °C): >32 µg/mL |
| CN[C@H](CC(C)C)C(=O)N[C@H]1C(=O)N[C@@H](CC(N)=O)C(=O)N[C@H]2C(=O)N[C@H]3C(=O)N[C@H](C(=O)N[C@H](C(=O)O)c4cc(O)cc(O)c4-c4cc3ccc4O)[C@H](O)c3ccc(c(Cl)c3)Oc3cc2cc(c3O[C@@H]2O[C@H](CO)[C@@H](O)[C@H](O)[C@H]2O[C@H]2C[C@](C)(N)[C@H](O)[C@H](C)O2)Oc2ccc(cc2Cl)[C@H]1O [VAN, vancomycin, reference compound] |  |  |  |  | > 32 |  | <= 0.25 |  | > 32 |  | > 32 |  | > 32 |  |  |  |  | MIC, Hm (Table 1S) ([1]; supplement Table 1S, Hm = human RBC hemolysis, 1 h, 37 °C, unit not given (main-text tables: μg/mL), capital 95 mg, minor letter 5 mg, in µg/mL): 28.69; MIC [2]: > 32 µg/mL; MIC ([3]; 18 h): ≤ 0.25 µg/mL; MIC [4]: > 32 µg/mL; MIC ([5]; Klebsiella pneumoniae, ATCC700603, 18 h, read-out: MIC against Kp): > 32 µg/mL; MIC [6]: > 32 µg/mL; HEK293 cytotoxic concentration ([7]; supplement Table 1S, Hk = HEK293 cytotoxicity, 24 h, resazurin, unit not given (main-text tables: μg/mL), capital 95 mg, minor letter 5 mg): > 32 µg/mL |
| RWRWRWRWRWRWRWRW-NH2 [RW8] | Moderate | 0.4523 | 0.4523 | 32 | 32 | 2 | 2 | 32 | 32 | >32 | > 32 | >32 | > 32 | > 32 | >32 | High | High (Gram+), Moderate (Gram−) |  |
| RWRWPRWRWPRWRW-NH2 [RW6-2P] |  | > 32 | >32 | 16 | 16 | ≤0.25 | <= 0.25 | 2 | 2 | >32 | > 32 | ≤0.25 | <= 0.25 | > 32 | >32 |  |  | MIC against MRSA [3, 10]: ≤ 0.25 µg/mL |
| CC1(C)S[C@@H]2[C@H](NC(=O)[C@H](N)c3ccccc3)C(=O)N2[C@H]1C(=O)O [AMP, ampicillin, reference compound] |  | > 32 |  |  | 8 |  | 32 |  | > 32 |  |  |  | > 32 | > 32 |  |  |  | MIC [2]: 8 µg/mL; MIC ([3]; 18 h): 32 µg/mL; MIC [4]: > 32 µg/mL; MIC [6]: > 32 µg/mL |
| penicillin [reference compound] |  | > 32 |  |  | 32 |  | 8 |  | > 32 |  |  |  | > 32 | > 32 |  |  |  | MIC against E. coli ([2]; E. coli ATCC 25922, CAMHB, 5 × 10^5 CFU/mL, 37 °C, 18 h, OD600, mixtures: capital letter component 95 mg, minor letter component 5 mg): 32 µg/mL; MIC against MRSA [3, 10]: 8 µg/mL; MIC against Ab ([4]; A. baumannii ATCC 19606, CAMHB, 5 × 10^5 CFU/mL, 37 °C, 18 h, OD600, mixtures: capital letter component 95 mg, minor letter component 5 mg): >32 µg/mL; MIC against Pa ([6]; P. aeruginosa ATCC 27853, CAMHB, 5 × 10^5 CFU/mL, 37 °C, 18 h, OD600, mixtures: capital letter component 95 mg, minor letter component 5 mg): >32 µg/mL |
